Measured values from patent US7186714B2, “Imidazo[1,2-α]pyridine derivatives for the prophylaxis and treatment of herpes viral infections” (SmithKline Beecham Corporation, priority 2001, dated 2007).

Tested on: HSV-1
Assay: HSV infection of Vero 76 cells, viral DNA detected by hybridization capture with chemiluminescence
Assay type: cell-based
Details: Human alphaherpesvirus 1; HSV-1 in Vero 76 cells, MOI=0.001, incubated 40–48 hours with test compound
Procedure: Vero 76 cells were maintained in MEM with Earle's salts, L-glutamine, 8% FBS (Hyclone, A-1111-L) and 100 units/mL Penicillin-100 μg/mL Streptomycin. For assay conditions, FBS was reduced to 2%. Cells are seeded into 96-well tissue culture plates at a density of 5×10^4 cells/well after being incubated for 45 min at 37° C. in the presence of HSV-1 or HSV-2 (MOI=0.001). Test compounds are added to the wells and the plates are incubated at 37° C. for 40–48 hours. Cell lysates are prepared as follows: media was removed and replaced with 150 μL/well 0.2 N NaOH with 1% Igepal CA 630 or NP-40. Plates were incubated up to 14 days at room temperature in a humidified chamber to prevent evaporation.
For the detection probe, a gel-purified, digoxigenin-labeled, 710-bp PCR fragment of the HSV UL-15 sequence was utilized. PCR conditions included 0.5 μM primers, 180 μM dTTP, 20 μM dUTP-digoxigenin (Boehringer Mannheim 1558706), 200 μM each of dATP, dCTP, and dGTP, 1×PCR Buffer II (Perkin Elmer), 2.5 mM MgCl2, 0.025 units/μL of AmpliTaq Gold polymerase (Perkin Elmer), and 5 ng of gel-purified HSV DNA per 100 μL Extension conditions were 10 min at 95° C., followed by 30 cycles of 95° C. for 1 min, 55° C. for 30 sec, and 72° C. for 2 min. The amplification was completed with a 10-min incubation at 72° C. Primers were selected to amplify a 728 bp probe spanning a section of the HSV1 UL15 open reading frame (nucleotides 249–977). Single-stranded transcripts were purified with Promega M13 Wizard kits. The final product was mixed 1:1 with a mixture of 6 M GuSCN, 100 mM EDTA and 200 μg/mL herring sperm DNA and stored at 4° C.
The capture DNA plasmid (HSV UL13 region in pUC) was linearized by cutting with XbaI, denatured for 15 min at 95° C. and diluted immediately into Reacti-Bind DNA Coating Solution (Pierce, 17250, diluted 1:1 with TE buffer, pH 8) at 1 ng/μL 75 μL/well were added to Corning (#3922 or 9690) white 96-well plates and incubated at room temperature for at least 4 hrs before washing twice with 300 μL/well 0.2×SSC/0.05% Tween-20 (SSC/T buffer). The plates were then incubated overnight at room temperature with 150 μL/well 0.2 N NaOH, 1% IGEPAL and 10 μg/mL herring sperm DNA.
Twenty-seven (27) μL of cell lysate was combined with 45 μL of hybridization solution (final concentration: 3M GuSCN, 50 mM EDTA, 100 μg/ml salmon sperm DNA, 5×Denhardt's solution, 0.25×APE, and 5 ng of the digoxigenin-labeled detection probe). APE is 1.5 M NH4-acetate, 0.15 M ammonium phosphate monobasic, and 5 mM EDTA adjusted to pH 6.0. Mineral oil (50 μL) was added to prevent evaporation. The hybridization plates were incubated at 95° C. for 10 minutes to denature the DNA, then incubated at 42° C. overnight. The wells were washed 6× with 300 μL/well SSC/T buffer then incubated with 75 μL/well anti-digoxigenin-HRP-conjugated antibody (Boehringer Mannheim 1207733, 1:5000 in TE) for 30 min at room temperature. The wells were washed 6× with 300 μL/well with PBS/0.05% Tween-20 before 75 μL/well SuperSignal LBA substrate (Pierce) was added. The plates were incubated at room temperature for 30 minutes and chemiluminescence was measured in a Wallac Victor reader.

In order of falling IC50:
1. O=C(O)c1cccc(-c2nc3c(NC4CCCC4)cccn3c2-c2ccnc(NC3CCCC3)n2)c1 [Example 55, 3-{8-(Cyclopentylamino)-3-[2-(cyclopentylamino)pyrimidin-4-yl]imidazo[1,2-a]pyridin-2-yl}benzoic acid]  7000 nM
2. Fc1ccc(-c2nc3ccc(Br)cn3c2-c2ccnc(NC3CCCC3)n2)cc1 [Example 47, N-{4-[6-Bromo-2-(4-fluorophenyl)imidazo[1,2-a]pyridin-3-yl]-2-pyrimidinyl}-N-cyclopentylamine]  4000 nM
3. Fc1ccc(-c2nc3ccccn3c2-c2ccnc(NC3CCCC3)n2)cc1 [Example 49, N-Cyclopentyl-4-[2-(4-fluorophenyl)imidazo[1,2-a]pyridin-3-yl]-2-pyrimidinamine]  3300 nM
4. CCCCNc1cccn2c(-c3ccnc(NC4CCCC4)n3)c(-c3cccc(N=[N+]=[N-])c3)nc12 [Example 56, 2-(3-Azidophenyl)-N-butyl-3-[2-(cyclopentylamino)pyrimidin-4-yl]imidazo[1,2-a]pyridin-8-amine]  2900 nM
5. Fc1ccc(-c2nc3ccc(NC4CCCC4)cn3c2-c2ccnc(NC3CCCC3)n2)cc1 [Example 48, N-Cyclopentyl-3-[2-(cyclopentylamino)-4-pyrimidinyl]-2-(4-fluorophenyl)imidazo[1,2-a]pyridin-6-amine]  2100 nM
6. Nc1cccc(-c2nc3c(NC4CCCC4)cccn3c2-c2ccnc(NC3CCCC3)n2)c1 [Example 33, 2-(3-Aminophenyl)-N-cyclopentyl-3-[2-(cyclopentylamino)-4-pyrimidinyl]imidazo[1,2-α]pyridin-8-amine]  1600 nM
7. c1cc(NCC2CC2)cc(-c2nc3c(NC4CCCC4)cccn3c2-c2ccnc(NC3CCCC3)n2)c1 [Example 34, N-Cyclopentyl-3-[2-(cyclopentylamino)-4-pyrimidinyl]-2-{3-[(cyclopropylmethyl)amino]phenyl}imidazo[1,2-α]pyridin-8-amine]  1500 nM
8. Cc1cccn2c(-c3ccnc(NC4CCCC4)n3)c(-c3ccc(F)cc3)nc12 [Example 46, N-Cyclopentyl-4-[2-(4-fluorophenyl)-8-methylimidazo[1,2-a]pyridin-3-yl]-2-pyrimidinamine]  1500 nM
9. c1cc(-c2nc3c(NC4CCCC4)cccn3c2-c2ccnc(NC3CCCC3)n2)cc(N(CC2CC2)CC2CC2)c1 [Example 35, 2-{3-[Bis(cyclopropylmethyl)amino]phenyl}-N-cyclopentyl-3-[2-(cyclopentylamino)-4-pyrimidinyl]imidazo[1,2-α]pyridin-8-amine]  1460 nM
10. Fc1ccc(-c2nc3c(NC4CCCC4)cc(Cl)cn3c2-c2ccnc(NC3CCCC3)n2)cc1 [Example 39, N-{4-[6-Chloro-8-(cyclopentylamino)-2-(4-fluorophenyl)imidazo[1,2-α]pyridin-3-yl]-2-pyrimidinyl}-N-cyclopentylamine]  1400 nM
11. Cc1cc(Br)cn2c(-c3ccnc(NC4CCCC4)n3)c(-c3ccc(F)cc3)nc12 [Example 44, N-{4-[6-Bromo-2-(4-fluorophenyl)-8-methylimidazo[1,2-a]pyridin-3-yl]-2-pyrimidinyl}-N-cyclopentylamine]  1200 nM
12. Fc1ccc(-c2nc3c(OCc4ccccc4)cccn3c2-c2ccnc(NC3CCCC3)n2)cc1 [Example 57, 4-[8-(Benzyloxy)-2-(4-fluorophenyl)imidazo[1,2-a]pyridin-3-yl]-N-cyclopentylpyrimidin-2-amine]  970 nM
13. Fc1ccc(-c2nc3c(Cl)cc(Cl)cn3c2-c2ccnc(NC3CCCC3)n2)cc1 [Example 38, N-Cyclopentyl-4-[6,8-dichloro-2-(4-fluorophenyl)imidazo[1,2-α]pyridin-3-yl]-2-pyrimidinamine]  950 nM
14. Fc1ccc(-c2nc3c(NC4CCCC4)cc(C(F)(F)F)cn3c2-c2ccnc(NC3CCCC3)n2)cc1 [Example 54, N-Cyclopentyl-3-[2-(cyclopentylamino)-4-pyrimidinyl]-2-(4-fluorophenyl)-6-(trifluoromethyl)imidazo[1,2-a]pyridin-8-amine]  840 nM
15. Fc1ccc(-c2nc3c(Br)cc(Br)cn3c2-c2ccnc(NC3CCCC3)n2)cc1 [Example 40, N-Cyclopentyl-4-[6,8-dibromo-2-(4-fluorophenyl)imidazo[1,2-a]pyridin-3-yl]-2-pyrimidinamine]  790 nM
16. N#Cc1cccc(-c2nc3c(Cl)cccn3c2-c2ccnc(NC3CCCC3)n2)c1 [Example 36, 3-{8-Chloro-3-[2-(cyclopentylamino)-4-pyrimidinyl]imidazo[1,2-α]pyridin-2-yl}benzonitrile]  650 nM
17. C=CCOc1ccc(-c2nc3c(NC4CCCC4)cccn3c2-c2ccnc(NC3CCCC3)n2)cc1 [Example 52, 2-[4-(Allyloxy)phenyl]-N-cyclopentyl-3-[2-(cyclopentylamino)-4-pyrimidinyl]imidazo[1,2-a]pyridin-8-amine]  620 nM
18. Fc1ccc(-c2nc3c(NC4CC4)cccn3c2-c2ccnc(NC3CCCC3)n2)cc1 [Example 51, 3-[2-(cyclopentylamino)-4-pyrimidinyl]-N-cyclopropyl-2-(4-fluorophenyl)imidazo[1,2-a]pyridin-8-amine]  510 nM
19. Fc1ccc(-c2nc3c(N4CCOCC4)cc(N4CCOCC4)cn3c2-c2ccnc(NC3CCCC3)n2)cc1 [Example 43, N-Cyclopentyl-4-[2-(4-fluorophenyl)-6,8-di(4-morpholinyl)imidazo[1,2-a]pyridin-3-yl]-2-pyrimidinamine]  470 nM
20. CCCCNc1cc(Br)cn2c(-c3ccnc(NC4CCCC4)n3)c(-c3ccc(F)cc3)nc12 [Example 42, 6-Bromo-N-butyl-3-[2-(cyclopentylamino)-4-pyrimidinyl]-2-(4-fluorophenyl)imidazo[1,2-a]pyridin-8-amine]  290 nM
21. c1cc(NC2CCCC2)c2nc(-c3ccc(OCC4CC4)cc3)c(-c3ccnc(NC4CCCC4)n3)n2c1 [Example 53, N-Cyclopentyl-3-[2-(cyclopentylamino)-4-pyrimidinyl]-2-[4-(cyclopropylmethoxy)phenyl]imidazo[1,2-a]pyridin-8-amine]  200 nM
22. Oc1cccn2c(-c3ccnc(NC4CCCC4)n3)c(-c3ccc(F)cc3)nc12 [Example 58]  200 nM
23. Fc1ccc(-c2nc3c(NC4CCCC4)cc(Br)cn3c2-c2ccnc(NC3CCCC3)n2)cc1 [Example 41, N-{4-[6-Bromo-8-(cyclopentylamino)-2-(4-fluorophenyl)imidazo[1,2-a]pyridin-3-yl]-2-pyrimidinyl}-N-cyclopentylamine]  180 nM
24. Fc1ccc(-c2nc3ccc(N4CCOCC4)cn3c2-c2ccnc(NC3CCCC3)n2)cc1 [Example 50, N-Cyclopentyl-4-[2-(4-fluorophenyl)-6-(4-morpholinyl)imidazo[1,2-a]pyridin-3-yl]-2-pyrimidinamine]  180 nM
25. Cc1cc(NC2CCCC2)cn2c(-c3ccnc(NC4CCCC4)n3)c(-c3ccc(F)cc3)nc12 [Example 45, N-Cyclopentyl-3-[2-(cyclopentylamino)-4-pyrimidinyl]-2-(4-fluorophenyl)-8-methylimidazo[1,2-a]pyridin-6-amine]  140 nM
